The record followed here is ChEMBL document CHEMBL1909046, “DrugMatrix in vitro pharmacology data”.

The target in test [1] is Beta-2 adrenergic receptor (Homo sapiens, UniProt P07550). Kind of test: DRUGMATRIX: Adrenergic beta2 radioligand binding (ligand: [3H] CGP-12177). It is filed as cell membranes, Membrane. The settings on record: cho; Not Active = under 50% inhibition at 10 µM.
The target of test [2] is Beta-3 adrenergic receptor (Homo sapiens, UniProt P13945). Kind of test: DRUGMATRIX: Adrenergic beta3 radioligand binding (ligand: [125I] Cyanopindolol). In kind it is cell membranes, Membrane. The settings on record: hek293; Not Active = under 50% inhibition at 10 µM.
Test [3] in a line: DRUGMATRIX: Sigma2 radioligand binding (ligand: [3H] Ifenprodil). In kind it is cell membranes, Rattus norvegicus, Wistar, Brain, Membrane. The settings on record: Not Active = under 50% inhibition at 10 µM.
A short description of test [4]: DRUGMATRIX: Tumor Necrosis Factor (TNF), Non-Selective radioligand binding (ligand: [125I] TNF-alpha). In kind it is cell membranes, Membrane. The settings on record: u-937; Not Active = under 50% inhibition at 10 µM.
Test [5] deals with D(3) dopamine receptor (Homo sapiens, UniProt P35462). Kind of test: DRUGMATRIX: Dopamine D3 radioligand binding (ligand: [3H] Spiperone). In kind it is cell membranes, CHO, Membrane.
In test [6] the target is T1, Leukotriene C4 synthase (Cavia porcellus, UniProt A6XA80).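 Further: enzyme inhibition assay of leukotriene C4 synthase, using LTA4 as the substrate; in other assays of this panel Not Active means under 50% inhibition at 10 µM.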
T1 sequence (A6XA80 whole entry): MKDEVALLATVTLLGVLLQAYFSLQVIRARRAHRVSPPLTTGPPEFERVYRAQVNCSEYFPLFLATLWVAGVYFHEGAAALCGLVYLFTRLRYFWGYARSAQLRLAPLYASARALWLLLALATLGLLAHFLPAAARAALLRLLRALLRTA
In kind it is tissue-based, Lung.

Test [7] concerns the target T2, Polyunsaturated fatty acid lipoxygenase ALOX15 (Oryctolagus cuniculus, UniProt P12530).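 Further: inhibition of 15-lipoxygenase enzyme activity measured with linoleic acid as the substrate; in other assays of this panel Not Active means under 50% inhibition at 10 µM.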
T2 sequence (P12530 whole entry): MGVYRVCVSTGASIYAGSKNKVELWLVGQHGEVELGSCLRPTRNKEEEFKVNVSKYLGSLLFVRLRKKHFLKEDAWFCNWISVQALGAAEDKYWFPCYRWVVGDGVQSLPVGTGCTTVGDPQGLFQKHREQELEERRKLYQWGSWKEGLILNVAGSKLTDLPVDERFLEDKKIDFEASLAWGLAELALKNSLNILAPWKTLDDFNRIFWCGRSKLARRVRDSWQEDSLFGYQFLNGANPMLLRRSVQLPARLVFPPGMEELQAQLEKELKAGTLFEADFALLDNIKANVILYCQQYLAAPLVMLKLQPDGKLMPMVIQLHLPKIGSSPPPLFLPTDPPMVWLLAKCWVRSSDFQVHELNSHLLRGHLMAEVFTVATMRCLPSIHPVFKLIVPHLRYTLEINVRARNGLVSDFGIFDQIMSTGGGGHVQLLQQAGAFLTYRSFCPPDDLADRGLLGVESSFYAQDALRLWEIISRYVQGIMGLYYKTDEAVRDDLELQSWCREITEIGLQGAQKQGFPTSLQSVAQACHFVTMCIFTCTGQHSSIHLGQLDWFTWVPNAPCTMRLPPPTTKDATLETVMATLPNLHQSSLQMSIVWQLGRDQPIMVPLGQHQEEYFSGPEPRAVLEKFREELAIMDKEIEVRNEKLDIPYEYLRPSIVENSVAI
The test is described as follows: biochemical. It is filed as tissue-based, Reticulocytes.

A short description of test [8]: DRUGMATRIX: Phosphodiesterase PDE3 enzyme inhibition (substrate: [3H]cAMP + cAMP). In kind it is tissue-based, Homo sapiens. The settings on record: platelet, Not Active = under 50% inhibition at 10 µM.
For test [9], the target named is Epidermal growth factor receptor (Homo sapiens, UniProt P00533). The test is described as follows: DRUGMATRIX: Protein Tyrosine Kinase, EGF Receptor enzyme inhibition (substrate: Poly(Glu:Tyr)). It is filed as cell-based, Insect cells. The settings on record: Not Active = under 50% inhibition at 10 µM.
The target of test [10] is Adenosine receptor A2a (Homo sapiens, UniProt P29274). The test is described as follows: DRUGMATRIX: Adenosine A2A radioligand binding (ligand: […]). In kind it is cell membranes, HEK293, Membrane. The settings on record: hek293; Not Active = under 50% inhibition at 10 µM.

Structures are written as SMILES.

Sequence of D(3) dopamine receptor (P35462 whole entry): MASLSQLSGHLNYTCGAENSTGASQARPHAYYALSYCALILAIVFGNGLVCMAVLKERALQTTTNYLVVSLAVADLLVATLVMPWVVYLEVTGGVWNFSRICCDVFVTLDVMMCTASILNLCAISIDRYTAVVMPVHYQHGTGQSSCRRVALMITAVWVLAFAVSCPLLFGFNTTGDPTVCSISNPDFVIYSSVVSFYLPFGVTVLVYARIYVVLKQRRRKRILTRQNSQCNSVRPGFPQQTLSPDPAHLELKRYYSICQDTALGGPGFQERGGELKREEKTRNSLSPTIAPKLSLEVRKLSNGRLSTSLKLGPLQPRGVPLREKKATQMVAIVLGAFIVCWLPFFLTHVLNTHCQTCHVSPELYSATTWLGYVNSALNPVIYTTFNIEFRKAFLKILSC
Sequence of Adenosine receptor A2a (P29274 whole entry): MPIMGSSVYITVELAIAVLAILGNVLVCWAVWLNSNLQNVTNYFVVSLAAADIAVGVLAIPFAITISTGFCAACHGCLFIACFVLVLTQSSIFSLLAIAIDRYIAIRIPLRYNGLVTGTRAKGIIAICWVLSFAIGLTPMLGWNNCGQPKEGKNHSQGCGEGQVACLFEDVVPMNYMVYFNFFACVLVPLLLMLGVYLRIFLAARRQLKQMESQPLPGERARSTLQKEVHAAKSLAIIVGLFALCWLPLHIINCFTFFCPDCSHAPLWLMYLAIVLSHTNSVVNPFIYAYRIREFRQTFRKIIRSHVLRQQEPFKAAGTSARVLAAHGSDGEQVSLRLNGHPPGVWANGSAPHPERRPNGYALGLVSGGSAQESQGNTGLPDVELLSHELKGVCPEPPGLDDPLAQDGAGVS
Sequence of Epidermal growth factor receptor (P00533 whole entry): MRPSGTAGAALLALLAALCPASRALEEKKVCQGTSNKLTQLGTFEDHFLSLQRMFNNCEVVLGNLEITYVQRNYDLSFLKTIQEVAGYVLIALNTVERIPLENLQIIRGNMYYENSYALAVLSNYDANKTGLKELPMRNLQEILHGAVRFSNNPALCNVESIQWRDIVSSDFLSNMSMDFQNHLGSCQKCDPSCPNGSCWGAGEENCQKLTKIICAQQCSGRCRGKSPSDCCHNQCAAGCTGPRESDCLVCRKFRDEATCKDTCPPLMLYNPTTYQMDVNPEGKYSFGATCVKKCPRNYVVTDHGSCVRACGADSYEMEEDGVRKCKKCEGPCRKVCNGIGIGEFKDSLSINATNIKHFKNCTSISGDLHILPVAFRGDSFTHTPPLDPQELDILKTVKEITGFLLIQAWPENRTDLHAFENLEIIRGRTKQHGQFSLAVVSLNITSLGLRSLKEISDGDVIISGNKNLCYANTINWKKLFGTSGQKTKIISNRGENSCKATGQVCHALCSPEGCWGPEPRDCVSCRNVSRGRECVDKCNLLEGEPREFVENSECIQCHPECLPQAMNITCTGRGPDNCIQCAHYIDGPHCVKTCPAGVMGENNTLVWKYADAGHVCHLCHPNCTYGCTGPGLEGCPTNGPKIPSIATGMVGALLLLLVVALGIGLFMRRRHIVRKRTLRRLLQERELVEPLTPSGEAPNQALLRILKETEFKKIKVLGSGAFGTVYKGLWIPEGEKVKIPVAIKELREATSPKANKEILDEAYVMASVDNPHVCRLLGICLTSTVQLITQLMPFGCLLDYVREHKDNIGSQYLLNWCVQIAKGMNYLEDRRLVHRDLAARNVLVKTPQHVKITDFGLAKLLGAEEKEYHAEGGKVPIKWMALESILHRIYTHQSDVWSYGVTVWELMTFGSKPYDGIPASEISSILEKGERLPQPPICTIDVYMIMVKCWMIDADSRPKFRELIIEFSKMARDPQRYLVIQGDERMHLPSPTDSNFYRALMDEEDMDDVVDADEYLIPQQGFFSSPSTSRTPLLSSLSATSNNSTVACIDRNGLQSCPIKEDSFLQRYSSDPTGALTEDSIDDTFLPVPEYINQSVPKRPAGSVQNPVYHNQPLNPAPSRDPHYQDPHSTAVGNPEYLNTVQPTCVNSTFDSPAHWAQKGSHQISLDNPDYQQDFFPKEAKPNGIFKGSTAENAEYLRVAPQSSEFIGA
Sequence of Beta-3 adrenergic receptor (P13945 whole entry): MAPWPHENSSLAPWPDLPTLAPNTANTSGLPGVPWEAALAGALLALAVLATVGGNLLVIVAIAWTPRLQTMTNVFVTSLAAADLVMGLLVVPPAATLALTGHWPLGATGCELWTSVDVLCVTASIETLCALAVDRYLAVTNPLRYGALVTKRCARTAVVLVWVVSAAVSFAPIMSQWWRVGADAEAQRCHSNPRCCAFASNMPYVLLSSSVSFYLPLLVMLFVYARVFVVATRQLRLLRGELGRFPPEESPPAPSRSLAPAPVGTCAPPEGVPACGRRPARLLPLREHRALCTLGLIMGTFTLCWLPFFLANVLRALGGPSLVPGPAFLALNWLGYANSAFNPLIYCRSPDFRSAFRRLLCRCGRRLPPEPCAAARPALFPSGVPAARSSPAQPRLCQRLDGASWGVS
Sequence of Beta-2 adrenergic receptor (P07550 whole entry): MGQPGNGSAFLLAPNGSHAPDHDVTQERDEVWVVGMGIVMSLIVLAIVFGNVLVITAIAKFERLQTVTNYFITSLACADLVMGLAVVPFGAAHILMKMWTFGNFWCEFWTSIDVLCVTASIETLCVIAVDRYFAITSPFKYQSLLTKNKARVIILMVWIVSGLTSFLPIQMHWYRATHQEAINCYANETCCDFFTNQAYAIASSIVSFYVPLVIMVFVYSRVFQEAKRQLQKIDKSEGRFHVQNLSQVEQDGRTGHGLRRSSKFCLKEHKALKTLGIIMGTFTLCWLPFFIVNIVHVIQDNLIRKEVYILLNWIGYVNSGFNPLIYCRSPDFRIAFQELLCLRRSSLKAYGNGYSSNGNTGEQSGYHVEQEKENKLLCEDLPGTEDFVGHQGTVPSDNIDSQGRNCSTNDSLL

For `CC1=C(CC(=O)O)c2cc(F)ccc2/C1=C\c1ccc([S+](C)[O-])cc1` (centres undefined), the IC50 result in [1], in test [2], in [3], in [4], in test [5] (cho) and in test [6] was “Not Active” each time. Moreover, the IC50 result in test [7] (reticulocytes), in test [8], in test [9] (insect cells) and in test [10] was “Not Active” throughout. In addition, the Ki result in test [3], in test [4] and in test [8] was “Not Active” in each case.
For the compound `N[C@H](CSC(=S)NCc1ccccc1)C(=O)O`, the concentration for half-maximal inhibition (IC50) entry in test [1], in test [2], in [3], in test [4], in test [5] (cho) and in [6] was “Not Active” throughout. The IC50 result in test [7] (reticulocytes), in test [8], in test [9] (insect cells) and in [10] was “Not Active” throughout. For the same compound, the Ki entry in test [3], in test [4] and in test [8] was “Not Active” each time.
Consider `CC(=O)N[C@@H]1[C@H](Oc2c3cc4cc2Oc2ccc(cc2Cl)[C@@H](O[C@@H]2O[C@@H](CO)[C@@H](O)[C@H](O)[C@@H]2NC(C)=O)[C@@H]2NC(=O)[C@H](NC(=O)[C@@H]4NC(=O)[C@H]4NC(=O)[C@@H](Cc5ccc(c(Cl)c5)O3)NC(=O)[C@H](N)c3ccc(O)c(c3)Oc3cc(O)cc4c3)c3ccc(O)c(c3)-c3c(O[C@H]4O[C@H](CO)[C@@H](O)[C@@H](O)[C@@H]4O)cc(O)cc3[C@@H](C(=O)O)NC2=O)O[C@@H](CO)[C@@H](O)[C@@H]1O`, for which the IC50 result in test [1], in test [2], in test [3], in test [4], in test [5] (cho) and in [6] was “Not Active” in each case. Besides, the IC50 result in [7] (reticulocytes), in test [8], in test [9] (insect cells) and in test [10] was “Not Active” in each case. Also, the Ki result in [3], in test [4] and in [8] was “Not Active” throughout.
Turning to `Clc1ccc2c(c1)C(N1CCNCC1)=Nc1ccccc1O2` [AMOXAPINE], the IC50 entry in test [1], in [2], in test [6], in [7] (reticulocytes), in test [9] (insect cells) and in test [10] was “Not Active” each time.
With `COc1cc2c(c(OC)c1OC)-c1ccc(OC)c(=O)cc1[C@@H](NC(C)=O)CC2` [COLCHICINE], the half-maximal inhibitory concentration (IC50) entry in test [1], in test [2], in test [5] (cho), in test [6], in [7] (reticulocytes) and in test [9] (insect cells) was “Not Active” each time. The IC50 (in general, the concentration that gives 50% inhibition) in [10] is “Not Active”.
As to `CN1CCC(=C2c3ccccc3C=Cc3ccccc32)CC1` [CYPROHEPTADINE], the IC50 result in test [1], in test [2], in test [6], in test [7] (reticulocytes), in [9] (insect cells) and in test [10] was “Not Active” throughout.
Turning to `CC/C(=C(/CC)c1ccc(O)cc1)c1ccc(O)cc1` [DIETHYLSTILBESTROL], the IC50 result in test [1] is “Not Active”; in test [2] it was “Not Active”; in test [6], “Not Active”; in test [7] (read-out: IC50) it was 2960 nM; in test [9] (insect cells) it was “Not Active”.
In the case of `CC(=O)N1CCN(c2ccc(OCC3COC(Cn4ccnc4)(c4ccc(Cl)cc4Cl)O3)cc2)CC1` (centres undefined) [KETOCONAZOLE], the IC50 entry is “Not Active” in test [1]; “Not Active” in test [2]; 15900 nM in test [3] (read-out: IC50); “Not Active” in [4]; “Not Active” in [5] (cho); “Not Active” in [6]. For the same compound, the IC50 is 5420 nM in test [7] (read-out: IC50), “Not Active” in test [8], “Not Active” in [9] (insect cells) and “Not Active” in test [10]. Besides, the values for the Ki in [3] (read-out: Ki), in [4] and in test [8] were 9790 nM, “Not Active” and “Not Active”, respectively.
For `C=CCN1CC[C@]23c4c5ccc(O)c4O[C@H]2C(=O)CC[C@@]3(O)[C@H]1C5` [NALOXONE], the IC50 result in [1], in test [2], in [5] (cho), in test [6], in [7] (reticulocytes) and in test [9] (insect cells) was “Not Active” each time. Moreover, in test [10], the IC50 result is “Not Active”.
`COCCOC(=O)C1=C(C)NC(C)=C(C(=O)OC(C)C)C1c1cccc([N+](=O)[O-])c1` (centres undefined) [NIMODIPINE]: the IC50 entry in [1], in test [2], in test [3], in test [4], in [5] (cho) and in test [6] was “Not Active” in each case. For the same compound, the IC50 result in [7] (reticulocytes), in test [8], in [9] (insect cells) and in [10] was “Not Active” throughout. The Ki entry in test [3], in test [4] and in [8] was “Not Active” throughout.
`CC(C)NCC(O)COc1cccc2ccccc12` (centres undefined) [PROPRANOLOL]: the IC50 result in test [5] (cho), in test [6], in test [7] (reticulocytes), in test [9] (insect cells) and in test [10] was “Not Active” in each case.
On to `COCCCOc1ccnc(C[S+]([O-])c2nc3ccccc3[nH]2)c1C` (centres undefined) [RABEPRAZOLE], for which the IC50 result is “Not Active” in test [1]; “Not Active” in test [2]; “Not Active” in [3]; “Not Active” in test [4]; 2330 nM in test [5] (read-out: IC50); “Not Active” in test [6]. Moreover, the IC50 result in test [7] (reticulocytes) was “Not Active”; in test [8] (read-out: IC50), 2280 nM; in [9] (insect cells) it was “Not Active”; in test [10], “Not Active”. The figures for the Ki result in test [3], in [4] and in [5] (read-out: Ki) were “Not Active”, “Not Active” and 790 nM, respectively.
With `O=C(c1ccc(OCCN2CCCCC2)cc1)c1c(-c2ccc(O)cc2)sc2cc(O)ccc12` [RALOXIFENE], the IC50 entry is “Not Active” in test [1]; “Not Active” in [2]; 385 nM in test [3] (read-out: IC50); “Not Active” in test [4]; “Not Active” in test [6]; “Not Active” in [7] (reticulocytes). Further, the IC50 result in test [8] and in test [9] (insect cells) was “Not Active” each time. Moreover, the Ki (in general, a dissociation constant, usually derived from enzyme kinetics or from competition with a known ligand) is 237 nM in test [3] (read-out: Ki), “Not Active” in test [4] and “Not Active” in [8].
On to `CC(C)(C)c1ccc(C(O)CCCN2CCC(C(O)(c3ccccc3)c3ccccc3)CC2)cc1` (centres undefined) [TERFENADINE], for which the IC50 result in test [1], in test [2], in test [3], in [4], in [6] and in [7] (reticulocytes) was “Not Active” in each case. Further, the IC50 entry in test [8] is “Not Active”; in test [9] (read-out: IC50), 3570 nM; in test [10], “Not Active”. Further, the Ki entry in test [3], in [4] and in test [8] was “Not Active” each time.
`C[C@@H](N)[C@H]1CC[C@H](C(=O)Nc2ccncc2)CC1` [Y-27632]: the IC50 entry in [1], in test [2], in test [3], in [4], in [5] (cho) and in [6] was “Not Active” each time. Besides, the IC50 result in [7] (reticulocytes), in test [8] and in test [10] was “Not Active” in each case. Also, the Ki entry in [3], in [4] and in test [8] was “Not Active” each time.
